The source of these data is patent US10258658B2, “Compositions and methods for improved muscle metabolism” (Naturex SA, priority 2015, dated 2019).

The test system of test [1] is S6K1 phosphorylation on threonine 389. Briefly: S6K1 phosphorylation on threonine 389 in C2C12 myotubes (ELISA). The class given is cell-based, mice. The conditions noted are these: LOW AMINO ACID (0.08 mM), Step 1; 100 ng/mL; 2 h; % of untreated control. The protocol:
(§1) Growing cells were harvested and plated at a density of 170 000 cells per well in a 6 well plate. Cells were grown for 48 h in 5% CO2 at 37° C. After cells reached 80% confluence, the medium was replaced with differentiating medium (DMEM+2% FBS). After 5 days, myoblasts were fused into multinucleated myotubes. 1 h before starting the experiment, cells were incubated in Krebs medium to deprived cells of amino acids.
(§2) Cells were treated with five preparations of Rhaponticum plant extract at 3 concentrations in the presence of normal (0.8 mM) or low (0.08 mM) concentration of amino acids and with DMSO 0.002% for 2 h.
(§3) At the end of the experiment, cells were lysed in cell lysate buffer (100 μL per well) and centrifuged to isolate the soluble protein in supernatant. Proteins from this cellular assay were quantified using a colorimetric assay derived from LOWRY method. Therefore, 50 μg of total protein in 100 μL lysis buffer were transferred into microwell strips coated with pS6K1 or pAkt antibody and incubated 2 h at 37° C. […] Intensity of the yellow color was readable on a spectrophotometer at 450 nm and directly proportional to pS6K1 or Akt amount detected.
Results of phosphorylated T389 S6 kinase1 is expressed in absorbance per μg of protein (Abs/μg protein) after 2 hrs incubation and in % of untreated control condition (100%). […]
On the technique in general: In an ELISA, binding on a coated surface is turned into a signal by an enzyme label.

The subject of test [2] is Akt phosphorylation on threonine 308. Nature of the test: Akt phosphorylation on threonine 308 in C2C12 myotubes (ELISA). The format is cell-based, mice. The conditions noted are these: 100 ng/mL, 2 h. On the procedure: as §1, §2, §3
Results of phosphorylated Akt is expressed in absorbance per μg of protein (Abs/μg protein) after 2 hrs incubation and in % of untreated control condition (100%). […]

The test system of test [3] is C2C12 myotubes. Briefly: Protein synthesis (tritiated leucine incorporation) in C2C12 myotubes. The format is cell-based, mice. Conditions: 100 ng/mL. The protocol:
For the protein synthesis assay, growing cells were harvested and plated at a density of 30 000 cells per well in a 24 well plate. Cells were grown for 48 h in 5% CO2 at 37° C. After cells reached 80% confluence, the medium was replaced with differentiating medium (DMEM+2% FBS). After 5 days, myoblasts were fused into multinucleated myotubes. Protein synthesis was determined by measuring the incorporation of the tritiated amino acid leucine. Briefly, 1 h prior leucine challenge, cells were incubated in amino acid free-medium. Then cells were incubated for 2 h30 in the presence of: radiolabelled leucine 5 μCi/mL and IGF1 100 ng/mL or plant extract in the presence of normal (0.8 mM) or low (0.08 mM) concentration of amino acids and with DMSO 0.002%
Five different preparations of Rhaponticum extract at three concentrations were incubated for 2 h30 in the presence of differentiated C2C12 myotubes and tritiated leucine (5 μCi). At the end of the incubation cells were lysed, total soluble proteins were quantified and level of tritiated leucine incorporated into cells was counted. Mean±SEM. *p<0.05; **p<0.01; ***p<0.001 vs control value.
For this study, C2C12 cells were obtained as described in EXAMPLE 12. Protein synthesis assay was performed as described in EXAMPLE 13, except that radiolabelled leucine 5 μCi/mL and IGF1 100 ng/mL, F0 extract at 1, 5 and 10 μg/ml or Rhodiola extract at 10, 104 and 417 μg/ml in the presence of normal (0.8 mM) concentration of amino acids and with DMSO 0.005% were used.
For this study, C2C12 cells were obtained as described in EXAMPLE 12. Protein synthesis assay was performed as described in EXAMPLE 13, except that radiolabelled leucine 5 μCi/mL and IGF1 100 ng/mL, F0 extract at 1 and 10 μg/ml, or Rhodiola extract at 1 and 10 μg/ml or combination of F0 with Rhodiola at different concentrations in the presence of normal (0.8 mM) concentration of amino acids and with DMSO 0.005% was used.
The C2C12 skeletal muscle cells were obtained as in EXAMPLE 12. The protein synthesis assay was performed as in EXAMPLE 13 and 14 except that radiolabelled leucine 5 μCi/mL and IGF1 100 ng/mL, F0 extract at 11.4 and 22.9 μg/ml, or F0 dry extract at 6.5 and 13 μg/ml or F1 extract at 13.4 and 26.7 μg/ml or F5′ extract at 1 and 1.9 μg/ml in the presence of normal (0.8 mM) concentration of amino acids and with DMSO 0.005%. At the end of the experiments supernatants were discarded and cells were lysed in 0.1N sodium hydroxide for 30 min. The cell soluble fraction-associated radioactivity was then counted and protein quantification was determined using the coloric Lowry method.
Each condition is tested in n=6. IGF1 100 ng/ml is used as a positive control of the protein synthesis stimulation and signaling. Results of protein synthesis are expressed in cpm/μL/2.5 hrs and in % of untreated control condition (100%).

For test [4], the system named is myostatin gene expression. Briefly: Myostatin gene expression in C2C12 myotubes (qPCR). The class given is cell-based, mice. On the procedure: (§4) For the gene expression assay, growing cells were harvested and plated at a density of 30 000 cells per well in a 24 well plate. Cells were grown for 48 h in 5% CO2 at 37° C. After cells reached 80% confluence, the medium was replaced with differentiating medium (DMEM+2% FBS). After 5 days, myoblasts were fused into multinucleated myotubes.
(§5) Cells were treated with F0 extract at 1 and 10 μg/ml, or Rhodiola extract at 1 and 10 μg/ml or combination of F0 with Rhodiola at different concentrations, for 6 h. At the end of the experiment, C2C12 cells were lyzed in trizol solution and RNA was extracted and purified using the phenol/chloroform method. RNA amount after extraction was quantified by spectrophotometer (260 nm/280 nm/320 nm) and suspended at a final concentration of 1 μg/1 μL. […]
FIGS. 23a, 23b, 24a, and 24b: Effect of co-incubation of Rhaponticum F0 and Rhodiola extracts on myostatin gene expression in C2C12 myotubes. […] At the end of the incubation cells were lysed and RNA was extracted, converted into cDNA to perform a quantitative PCR. […]

Test [5] concerns atrogin gene expression. Briefly: Atrogin gene expression in C2C12 myotubes (qPCR). The class given is cell-based, mice. Conditions: positive control in this experiment. The protocol: as §4, §5
Combination of Rhaponticum F0 and Rhodiola extracts at two different concentrations each were incubated for 6 h in the presence of differentiated C2C12 myotubes. At the end of the incubation cells were lysed and RNA was extracted, converted into cDNA to perform a quantitative PCR. […]
On the technique in general: Real-time PCR tracks product formation cycle by cycle.

The test system of test [6] is C2C12 myotubes. The conditions noted are these: low or normal concentration of amino acids; literature (Kazi, Broussard); cited from earlier work.
Test [7] concerns atrogin gene expression. Conditions: 24 h incubation, 10 ng/mL; literature (Latres, Stitt); cited from earlier work.

Marks after values point to notes of the source that are not given here.

As to Insulin like growth factor-1 [IGF-1], the pS6K in test [1] worked out at 479%**. Further, the “Akt phosphorylation activated by a factor” value in test [2] is on record as 1.6. Moreover, in the test with C2C12 myotubes [3] (LOW AMINO ACID (0.08 mM), Step 1, 2 h30, % of untreated control), the protein synthesis came out at 145%**. For the same substance, the “induction of protein synthesis vs untreated control” value in the test on C2C12 myotubes [3] (step 1, low (0.08 mM) amino acids, DMSO 0.002%) is “+45%”; with C2C12 myotubes [3] (step 1, normal (0.8 mM) amino acids, DMSO 0.002%), “+21%”; in the test with C2C12 myotubes [3] (step 2a, normal (0.8 mM) amino acids, DMSO 0.005%) it was “+27%”; in the test with C2C12 myotubes [3] (step 3, normal (0.8 mM) amino acids, DMSO 0.005%) it was “+25%”. The “inhibitory effect on myostatin gene expression” value in test [4] (internal data) is 20-40%. The “change in myostatin gene expression vs control” value in test [4] (positive control in this experiment) is on record as −25%. The “change in atrogin gene expression vs control” value with atrogin gene expression [5] is on record as −59%. The “increase in protein synthesis” value in the test on C2C12 myotubes [6] is 20-50%. In the test on atrogin gene expression [7], the “inhibition of atrogin gene expression” value is reported as “around 40%”.
